# Tested on: HT1080 and MDA-MB-231 cells
# Assay: Cell invasion assay
# Format: cell-based
# Procedure: FIG. 65B is an image of an invasive cell in HT1080 and MDA-MB-231 cells treated with 2.0 μM BIA. The graph on the right quantifies invading cells from BIA-treated cells normalized to control cells (n=3 independent experiments). Data were expressed as mean±SD. **p<0.01, ***p<0.001, two-tailed unpaired t-test. The scale bar represents […].
# Cells were moved through the polyethylene terephthalate membrane (BD Biosciences) of the insert for 12 hours, and then fixed, crystal violet staining was performed to measure the degree of invasion.
# Cell invasion experiments were performed according to the method of the Invasion Assay Kit (corning, 3458). Put a cell culture insert into the 24-well cell culture plate, DMEM medium with 10% FBS added outside the insert , and no FBS added inside the insert. 2.0 μM BIA was added to HT1080 and MDA-MB-231 and incubated at 37° C. for 12˜24 hours. Removed the medium in the 24-well culture plate and the medium inside the insert Then, a cotton swab was used to remove the remaining cells in the insert. After fixing the insert in 4% formaldehyde solution, stain the cells that penetrate the bottom of the insert with crystal violet solution, wash it with tertiary distilled water, and then at room temperature Dried and dried inserts were observed under a microscope.
smiles,measurement,setting,value
"Nc1ccccc1C(=O)/C=C/c1cccc([N+](=O)[O-])c1 [BIA, 2E-1-2-Aminophenyl-3-3-nitrophenyl-2-propen-1-one]",cell invasion,"HT1080 fibrosarcoma cells, 12 hours",very pronounced cell invasion inhibition
same,cell invasion,"MDA-MB-231 and HT1080 cells, 2.0 μM BIA",reduced
